Results taken from article PMC10708259 (Molecules, 2023).

Tests used:
[1] = biological target: human δ-opioid receptor (OPRD1) (Homo sapiens, UniProt P41143); assay: Forskolin-induced cAMP accumulation assay, DOR agonist mode; conditions: for Emax: CHO-K1, read-out: DOR Agonist %Emax ± SEM; for DOR efficacy in words: cAMP assay
[2] = biological target: T1, human μ-opioid receptor (OPRM1) (Homo sapiens, UniProt P35372); assay: cell-based; format: cell-based; conditions: for EC50: MOR Agonist EC50 ± SEM; for Emax: read-out: MOR Agonist %Emax ± SEM
T1 construct: host or cells: cAMP Hunter CHO-K1
T1 sequence (P35372 whole entry): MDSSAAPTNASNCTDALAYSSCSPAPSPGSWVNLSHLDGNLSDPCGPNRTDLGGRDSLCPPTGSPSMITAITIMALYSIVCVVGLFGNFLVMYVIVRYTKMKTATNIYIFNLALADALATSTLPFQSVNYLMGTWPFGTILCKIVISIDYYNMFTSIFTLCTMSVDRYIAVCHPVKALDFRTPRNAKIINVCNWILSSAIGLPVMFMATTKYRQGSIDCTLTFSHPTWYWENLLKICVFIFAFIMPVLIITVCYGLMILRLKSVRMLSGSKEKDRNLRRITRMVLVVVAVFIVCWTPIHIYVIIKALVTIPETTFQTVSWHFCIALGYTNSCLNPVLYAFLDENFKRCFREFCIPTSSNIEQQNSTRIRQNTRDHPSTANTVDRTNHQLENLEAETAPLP

[3] = biological target: T2, human κ-opioid receptor (OPRK1) (Homo sapiens, UniProt P41145); assay: Forskolin-induced cAMP accumulation assay, KOR agonist mode; conditions: for Emax: CHO-K1, read-out: KOR Agonist %Emax ± SEM
T2 sequence (P41145 whole entry): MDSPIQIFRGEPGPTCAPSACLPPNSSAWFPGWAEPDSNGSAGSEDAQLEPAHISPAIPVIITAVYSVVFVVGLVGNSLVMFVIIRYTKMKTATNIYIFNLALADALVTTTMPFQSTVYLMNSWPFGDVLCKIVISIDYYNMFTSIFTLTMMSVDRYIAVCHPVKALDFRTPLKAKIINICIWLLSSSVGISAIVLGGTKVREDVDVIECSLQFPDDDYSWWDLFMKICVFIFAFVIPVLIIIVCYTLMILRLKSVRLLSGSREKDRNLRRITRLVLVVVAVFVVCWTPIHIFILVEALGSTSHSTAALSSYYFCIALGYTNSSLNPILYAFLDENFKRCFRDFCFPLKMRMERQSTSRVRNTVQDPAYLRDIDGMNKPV

[4] = biological target: T2, human κ-opioid receptor (OPRK1); assay: Forskolin-induced cAMP accumulation assay, KOR antagonist mode; conditions: for KOR Antagonist %Imax ± SEM: versus EC90 of U50488H, Imax normalized to nor-BNI

human δ-opioid receptor (OPRD1), sequence (P41143 whole entry): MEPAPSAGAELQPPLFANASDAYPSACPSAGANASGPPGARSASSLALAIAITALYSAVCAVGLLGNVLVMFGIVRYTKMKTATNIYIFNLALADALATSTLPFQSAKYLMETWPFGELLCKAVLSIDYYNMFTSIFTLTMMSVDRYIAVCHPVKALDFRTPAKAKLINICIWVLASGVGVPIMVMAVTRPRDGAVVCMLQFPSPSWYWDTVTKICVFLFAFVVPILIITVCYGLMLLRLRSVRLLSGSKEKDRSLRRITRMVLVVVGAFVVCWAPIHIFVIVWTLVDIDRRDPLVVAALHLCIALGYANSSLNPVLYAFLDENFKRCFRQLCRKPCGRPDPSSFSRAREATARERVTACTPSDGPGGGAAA

Compound | EC50 [1] | Emax [1] | EC50 [2] | Emax [2] | EC50 [3] | Emax [3] | IC50 [4] | KOR Antagonist %Imax ± SEM [4] | MOR potency relative to morphine (times more potent than morphine) [2] | DOR efficacy in words [1] | MOR agonist potency / efficacy in words [2]
C[C@@H]1[C@@H]2C(O)c3ccc(O)cc3[C@@]1(C)CCN2CCc1ccccc1 (single isomer, unassigned; (+)) [(+)-36] | 1910 ± 232 nM | 97% | 25.2 nM | 103% | > 10000 nM | – | – | – | – | – | –
CC1c2ccc(O)cc2[C@@]2(C)CCN(CCc3ccccc3)[C@@H]1[C@H]2C (single isomer, unassigned; (+)) [(+)-39] | 1340 ± 389 nM | 94% | 21.7 nM | 103% | 953 ± 120 nM | 37% | > 10000 nM | – | – | – | –
CC1c2ccc(O)cc2[C@]2(C)CCN(CCc3ccccc3)[C@H]1[C@@H]2C (single isomer, unassigned; (-)) [(−)-39] | 12.6 ± 3.9 nM | 91% | 1.2 nM | 102% | 20.7 ± 6.1 nM | 38% | 731 ± 362 nM | 57 ± 5% | – | – | –
C=C1c2ccc(O)cc2[C@@]2(C)CCN(CCc3ccccc3)[C@@H]1[C@H]2C [(+)-38, (2R,6S,11S)-6,11-Dimethyl-1-methylene-3-phenethyl-1,2,3,4,5,6-hexahydro-2,6-methanobenzo[d]azocin-8-ol] | 978 ± 374 nM | 92% | 70 nM | 102% | 1180 ± 46 nM | 53% | – | – | – | – | –
C=C1c2ccc(O)cc2[C@]2(C)CCN(CCc3ccccc3)[C@H]1[C@@H]2C [(−)-38, (2S,6R,11R)-6,11-Dimethyl-1-methylene-3-phenethyl-1,2,3,4,5,6-hexahydro-2,6-methanobenzo[d]azocin-8-ol] | 4.9 ± 3 nM | 89% | 0.23 nM | 101% | 9.5 ± 2 nM | 57 ± 45.6% | – | – | about 25 times | – | –
CC1C2Cc3ccc(O)cc3C1(C)CCN2CCc1ccc([N+](=O)[O-])cc1 [Compound 3, (1R,5R,9R)-6,11-Dimethyl-3-(4-nitrophenethyl)-1,2,3,4,5,6-hexahydro-2,6-methanobenzo[d]azocin-8-ol] | 2.7 ± 1 nM | 88% | 0.3 nM | 101% | 13 ± 0.5 nM | 46% | – | – | – | partial DOR agonists | –
CC1C2Cc3ccc(O)cc3C1(C)CCN2CCc1cccc([N+](=O)[O-])c1 [Compound 4, (1R,5R,9R)-6,11-Dimethyl-3-(3-nitrophenethyl)-1,2,3,4,5,6-hexahydro-2,6-methanobenzo[d]azocin-8-ol] | – | – | 26 nM | 71% | – | – | – | – | – | – | –
CC1C2Cc3ccc(O)cc3C1(C)CCN2CCc1ccccc1[N+](=O)[O-] [Compound 5, (1R,5R,9R)-6,11-Dimethyl-3-(2-nitrophenethyl)-1,2,3,4,5,6-hexahydro-2,6-methanobenzo[d]azocin-8-ol] | 37 ± 6 nM | 73% | 2.7 nM | 101% | 16 ± 4 nM | 23% | 717 ± 132 nM | 89 ± 5% | – | – | –
C[C@H]1[C@H]2Cc3ccc(O)cc3[C@]1(C)CCN2CCc1ccc(F)cc1 [Compound 6, (2R,6R,11R)-6,11-Dimethyl-3-(4-fluorophenethyl)-1,2,3,4,5,6-hexahydro-2,6-methanobenzo[d]azocin-8-ol] | 12 ± 3 nM | 73% | 1.8 nM | 100% | 7 ± 3 nM | 34% | 368 ± 92 nM | 71 ± 2% | – | – | –
CC1C2Cc3ccc(O)cc3C1(C)CCN2CCc1cccc(F)c1 [Compound 7, (1R,5R,9R)-6,11-Dimethyl-3-(3-fluorophenethyl)-1,2,3,4,5,6-hexahydro-2,6-methanobenzo[d]azocin-8-ol] | 11 ± 4 nM | 86% | 0.6 nM | 100% | > 10000 nM | – | 274 ± 83 nM | 87 ± 2% | – | – | –
CC1C2Cc3ccc(O)cc3C1(C)CCN2CCc1ccccc1F [Compound 8, (1R,5R,9R)-6,11-Dimethyl-3-(2-fluorophenethyl)-1,2,3,4,5,6-hexahydro-2,6-methanobenzo[d]azocin-8-ol] | 6 ± 2 nM | 87% | 0.2 nM | 101% | 6 ± 1 nM | 45% | – | – | about 30 times | – | –
CC1C2Cc3ccc(O)cc3C1(C)CCN2CCc1ccc(C(F)(F)F)cc1 [Compound 9, (1R,5R,9R)-6,11-Dimethyl-3-(4-trifluoromethylphenethyl)-1,2,3,4,5,6-hexahydro-2,6-methanobenzo[d]azocin-8-ol] | 3 ± 1 nM | 72% | 2 nM | 102% | 23 ± 5 nM | 100% | – | – | – | partial DOR agonists | –
CC1C2Cc3ccc(O)cc3C1(C)CCN2CCc1cccc(C(F)(F)F)c1 [Compound 10, (1R,5R,9R)-6,11-Dimethyl-3-(3-trifluoromethylphenethyl)-1,2,3,4,5,6-hexahydro-2,6-methanobenzo[d]azocin-8-ol] | – | – | 167 nM | 63% | – | – | – | – | – | – | –
CC1C2Cc3ccc(O)cc3C1(C)CCN2CCc1ccccc1C(F)(F)F [Compound 11, (1R,5R,9R)-6,11-Dimethyl-3-(2-trifluoromethylphenethyl)-1,2,3,4,5,6-hexahydro-2,6-methanobenzo[d]azocin-8-ol] | 24 ± 5 nM | 77% | 6 nM | 102% | 36 ± 3 nM | 72% | – | – | – | – | –
CC1C2Cc3ccc(O)cc3C1(C)CCN2CCc1ccc(Br)cc1 [Compound 12, (1R,5R,9R)-6,11-Dimethyl-3-(4-bromophenethyl)-1,2,3,4,5,6-hexahydro-2,6-methanobenzo[d]azocin-8-ol] | 1.1 ± 0.3 nM | 89% | 0.7 nM | 102% | 5 ± 2 nM | 100% | – | – | – | partial DOR agonists | –
CC1C2Cc3ccc(O)cc3C1(C)CCN2CCc1ccccc1Br [Compound 14, (1R,5R,9R)-6,11-Dimethyl-3-(2-bromophenethyl)-1,2,3,4,5,6-hexahydro-2,6-methanobenzo[d]azocin-8-ol] | 13 ± 2 nM | 89% | 2 nM | 101% | 16 ± 2 nM | 80% | – | – | – | – | –
CC1C2Cc3ccc(O)cc3C1(C)CCN2CCc1ccc(Cl)cc1 [Compound 15, (1R,5R,9R)-6,11-Dimethyl-3-(4-chlorophenethyl)-1,2,3,4,5,6-hexahydro-2,6-methanobenzo[d]azocin-8-ol] | 1.2 ± 0.5 nM | 89% | 1.3 nM | 103% | 5 ± 1 nM | 97% | – | – | – | partial DOR agonists | –
CC1C2Cc3ccc(O)cc3C1(C)CCN2CCc1ccccc1Cl [Compound 17, (1R,5R,9R)-6,11-Dimethyl-3-(2-chlorophenethyl)-1,2,3,4,5,6-hexahydro-2,6-methanobenzo[d]azocin-8-ol] | 15 ± 4 nM | 87% | 1.4 nM | 101% | 8 ± 1 nM | 57% | – | – | – | – | –
COc1ccc(CCN2CCC3(C)c4cc(O)ccc4CC2C3C)cc1 [Compound 18, (1R,5R,9R)-6,11-Dimethyl-3-(4-methoxyphenethyl)-1,2,3,4,5,6-hexahydro-2,6-methanobenzo[d]azocin-8-ol] | 4 ± 1 nM | 87% | 1.2 nM | 103% | 9 ± 2 nM | 89% | – | – | – | – | –
Cc1ccc(CCN2CCC3(C)c4cc(O)ccc4CC2C3C)cc1 [Compound 19, (1R,5R,9R)-6,11-Dimethyl-3-(4-methylphenethyl)-1,2,3,4,5,6-hexahydro-2,6-methanobenzo[d]azocin-8-ol] | 5 ± 2 nM | 87% | 1.4 nM | 103% | 13 ± 3 nM | 93% | – | – | – | – | –
CC1C2Cc3ccc(O)cc3C1(C)CCN2CCc1ccc(O)cc1 [Compound 20, (1R,5R,9R)-6,11-Dimethyl-3-(4-hydroxyphenethyl)-1,2,3,4,5,6-hexahydro-2,6-methanobenzo[d]azocin-8-ol] | 5 ± 1 nM | 84% | 0.13 nM | 102% | 8 ± 3 nM | 97% | – | – | ~40 times | – | –
CC1C2Cc3ccc(O)cc3C1(C)CCN2CCc1ccc(Cl)cc1Cl [Compound 21, (1R,5R,9R)-6,11-Dimethyl-3-(2,4-dichlorophenethyl)-1,2,3,4,5,6-hexahydro-2,6-methanobenzo[d]azocin-8-ol] | 37 ± 9 nM | 86% | 5 nM | 103% | 42 ± 10 nM | 93% | – | – | – | – | –
C[C@H]1[C@H]2Cc3ccc(O)cc3[C@]1(C)CCN2CCCc1ccccc1 [Compound 24, (1R,5R,9R)-6,11-Dimethyl-3-(phenylpropyl)-1,2,3,4,5,6-hexahydro-2,6-methanobenzo[d]azocin-8-ol] | – | – | 69 nM | 101% | – | – | – | – | – | – | little or no potency
CC1C2Cc3ccc(O)cc3C1(C)CCN2CC=Cc1ccccc1 [Compound 25, (1R,5R,9R)-6,11-Dimethyl-3-(cinnamyl)-1,2,3,4,5,6-hexahydro-2,6-methanobenzo[d]azocin-8-ol] | – | – | 244 nM | 101% | – | – | – | – | – | – | little or no potency
C[C@H]1[C@H]2Cc3ccc(O)cc3[C@]1(C)CCN2CCCc1ccc([N+](=O)[O-])cc1 [Compound 31, (1R,5R,9R)-6,11-Dimethyl-3-(3-(4-nitrophenyl)propyl)-1,2,3,4,5,6-hexahydro-2,6-methanobenzo[d]azocin-8-ol] | – | – | ≥ 10000 nM | – | – | – | – | – | – | – | little or no potency
